Laboratory results reported in US6368788B1 (priority 1987, dated 2002).

Tests used:
[1] = Acute osteomyelitis in adolescents (Protocol D); format: in vivo, human
Description: In 29 adolescents with osteomyelitis, 2 μg/kg L-Glu-L-Trp was administered im daily on each of 3-7 consecutive days, depending upon the severity of the infection. The control group consisted of 13 children who received conventional therapy with antibiotics.

[2] = DTH sensitivity to tuberculin; format: in vivo, guinea pigs
Description: In the second study, affects of L-Glu-L-Trp on DTH sensitivity were investigated in guinea pigs sensitized to tuberculin. L-Glu-L-Trp was administered ip at 10 μg/kg or 1000 μg/kg on the day of an intradermal sensitization with tuberculin antigen.

[3] = system: peripheral blood lymphocytes; test: Breast cancer patients after radiotherapy treated with L-Glu-L-Trp 100 μg im daily; format: in vivo, human
Description: Thirty six patients with breast cancer were treated with conventional radiation therapy (i.e., single doses of about 2-3 Gy daily for 10 days; total cumulative patient dose of 20-30 Gy). Following radiotherapy the patients were treated with L-Glu-L-Trp by injection of daily dosages im of 100 μg. The patients had been previously treated with radiation therapy (single doses 2 Gy; total dose 20-30 Gy).

[4] = DTH sensitization to Oxazolone (ear thickness); format: in vivo, mice; conditions: for Mean Ear Thickness ± S.D.: challenge day 7, measured at 24 hours
Description: Effects of L-Glu-L-Trp treatments on cell mediated immunity were evaluated by testing its effects on induction of a delayed-type hypersensitivity response in two different studies involving sensitization of mice to Oxazolone and guinea pigs to tuberculin.
In the first study L-Glu-L-Trp was administered ip at a dose of 10 μg/kg, or 1000 μg/kg one hour before a sensitizing dose of Oxazolone (0.1 mL of a 5% solution) was applied to the abdominal surface of a mouse. Seven days later skin sensitivity was measured by administering 25 μL of a 2% oxazolone solution to the right mouse ear and a sample of the diluent solution, as a control, to the left ear. Ear thickness was measured at 24 hours using a Dyer Model micrometer.

[5] = Thoracic cavity tumors: focal radiation therapy then L-Glu-L-Trp, clinical complications; format: in vivo, human; conditions: for Complications: Cardio-Pulm. / Complications: Mortality / Complications: Septic / Complications: Total: 5 × im 100 μg
Description: Surgical removal of thoracic tumors was followed in 38 patients by focal radiation therapy and then a course of L-Glu-L-Trp therapy consisting of 5 daily im injections of 100 μg L-Glu-L-Trp each. Only radiation therapy (and supportive antibiotic therapy) was administered as a control to 56 patients.

[6] = 10 μg/kg ip on day of tuberculin sensitization
[7] = 1000 μg/kg ip on day of tuberculin sensitization
[8] = psoriasis Group 1, after L-Glu-L-Trp Therapy (n = 30)
[9] = psoriasis, after Combination L-Glu-L-Trp Therapy (n = 30)
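Throughout, for Patients with improvement: psoriasis patients, 30 per group, with disease activity tracked through laboratory and clinical measures, set against a group receiving traditional therapy alone.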
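Throughout, for Patients with significant improvement: psoriasis patients, 30 per group, with disease activity tracked through laboratory and clinical measures, set against a group receiving traditional therapy alone.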
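Throughout, for Patients with total recovery: psoriasis patients, 30 per group, with disease activity tracked through laboratory and clinical measures, set against a group receiving traditional therapy alone.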
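Throughout, for Shorter length of hospital stay vs Group 2: psoriasis patients, 30 per group, with disease activity tracked through laboratory and clinical measures, set against a group receiving traditional therapy alone.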

With L-Glu-L-Trp the “Failure rate (wounds failed to heal)” value ([1]; 1 of 29) was 3%, the T-cell counts ([1]; in vivo) was “nearly doubled” and the “Wounds closed with healing earlier than control group” value ([1]; in vivo) was 2 to 3 days. For the same substance, the Fevers resolved sooner ([1]; on the average) was 1 to 2 days, the “Mean Skin Test Diameter ± S.D. Day 10” value [2, 6] was 14.4 ± 1.3 mm and the “Mean Skin Test Diameter ± S.D. Day 20” value [2, 6] was 15.1 ± 1.4 mm. The “Mean Skin Test Diameter ± S.D. Day 10” value [2, 7] was 15.2 ± 1.3 mm, the “Mean Skin Test Diameter ± S.D. Day 20” value [2, 7] was 13.9 ± 1.1 mm and the “DTH response to tuberculin antigen” value ([2]; day 10 or day 20) was “statistically significant increase in the DTH response”. For the same substance, the “B-lymphocyte (Ig+)” value [3] was 0.17 ± 0.02 ×10^9/L, the “B-lymphocyte (Ig+), Ratio Post-Rad/Pre-Rad Value” [3] was “(1.1)” and the “B-lymphocyte (Ig+), Ratio Post-Treat/Pre-Treat Value” [3] was “(1.55)”. For the same substance, the C3-complement [3] was 0.68 ± 0.04 g/L, the DTH to tuberculin [3] was 8.7 ± 0.6 mm and the “DTH to tuberculin, Ratio Post-Rad/Pre-Rad Value” [3] was “(1.2)”. For the same substance, the “Granulocyte Cation Proteins” value [3] was 1.49 ± 0.12, the “Granulocyte Phagocytic Index” value [3] was 3.7 ± 0.2 and the “LMI with ConA” value [3] was 71 ± 5 %. For the same substance, the Lymphocytes [3] was 1.72 ± 0.21 ×10^9/L, the “Lymphocytes, Ratio Post-Rad/Pre-Rad Value” [3] was “(1.1)” and the “Lymphocytes, Ratio Post-Treat/Pre-Treat Value” [3] was “(2.18)”. For the same substance, the “OKT4+/OKT8+” value [3] was 1.86 ± 0.17, the T-Lymphocytes [3] was 0.92 ± 0.12 ×10^9/L and the “T-helpers (OKT4+)” value [3] was 0.39 ± 0.04 ×10^9/L. The “T-helpers (OKT4+), Ratio Post-Rad/Pre-Rad Value” [3] was “(1.3)”, the “T-helpers (OKT4+), Ratio Post-Treat/Pre-Treat Value” [3] was “(3.25)” and the “T-lymphocytes, Ratio Post-Rad/Pre-Rad Value” [3] was “(1.1)”. For the same substance, the “T-lymphocytes, Ratio Post-Treat/Pre-Treat Value” [3] was “(2.88)”, the “T-suppressors (OKT8+)” value [3] was 0.21 ± 0.03 ×10^9/L and the “T-suppressors (OKT8+), Ratio Post-Rad/Pre-Rad Value” [3] was “(0.8)”. The “T-suppressors (OKT8+), Ratio Post-Treat/Pre-Treat Value” [3] was “(1.31)”, the ““Active” T-lymphocytes” value [3] was 0.52 ± 0.07 ×10^9/L and the ““Active” T-lymphocytes, Ratio Post-Rad/Pre-Rad Value” [3] was “(1.1)”. The ““Active” T-lymphocytes, Ratio Post-Treat/Pre-Treat Value” [3] was “(2.74)”, the “Mean Ear Thickness ± S.D.” value ([4]; 10 μg/kg ip one hour before Oxazolone sensitization) was 17 ± 1 μm and the DTH sensitivity ([4]; 1000 μg dose one hour prior to antigen) was “increase in DTH sensitivity to oxazolone”. The “Mean Ear Thickness ± S.D.” value ([4]; 1000 μg/kg ip one hour before Oxazolone sensitization) was 24 ± 1 μm, the Patients with improvement (10 days) was 7% and the “Patients with significant improvement” value (10 days) was 60%. The “Patients with total recovery” value (10 days) was 33%, the “Shorter length of hospital stay vs Group 2” value (average) was 4.2 days and the “Decrease in erythema of skin eruptions sooner than controls” value (in vivo) was 2.8 days. For the same substance, the “Disappearance of psoriatic rash sooner than controls” value (in vivo) was 7.1 days, the “Earlier recovery of disease activity than conventional therapy” value (in vivo) was 2 to 3 days and the C3 complement [8] was 926 ± 28.4 µg/mL. For the same substance, the Ceruloplasmin [8] was 366 ± 11.4 µg/mL, the “Clotting time (citrated whole blood-recalcified)” value [8] was 141 ± 2.4 and the FDP [8] was 23 ± 1.8 µg/mL. The “Fibrinogen Concentration” value [8] was 3.4 ± 0.1 g/L, the “Fibrinolytic Activity” value [8] was 200 ± 2.7 min and the Kaolin-Cephalin clotting time [8] was 58 ± 0.3. It also gave an Orosomucoid [8] of 829 ± 13.2 µg/mL, a PT [8] of 23 ± 0.2 and a Prealbumin [8] of 357 ± 3.8 µg/mL. The Thrombotest [8] was 33 ± 0.5 units, the Transferrin [8] was 3.36 ± 0.08 µg/mL and the α2-macroglobulin [8] was 2.5 ± 0.01. The “Number of Patients Having a Clinical Outcome as: Considerable Improvement” value (psoriasis Group 1, day 8-10) was 18/30, the “Number of Patients Having a Clinical Outcome as: Improvement” value (psoriasis Group 1, day 8-10) was 2/30 and the “Number of Patients Having a Clinical Outcome as: No Improvement” value (psoriasis Group 1, day 8-10) was 3/30. The “Number of Patients Having a Clinical Outcome as: Recovery” value (psoriasis Group 1, day 8-10) was 7/30, the “Patients with Considerable Improvement (%)” value (psoriasis Group 1, day 8-10) was “(60%)” and the “Patients with Improvement (%)” value (psoriasis Group 1, day 8-10) was “(7%)”. The “Patients with No Improvement (%)” value (psoriasis Group 1, day 8-10) was “(10%)”, the “Patients with Recovery (%)” value (psoriasis Group 1, day 8-10) was “(23%)” and the B-Lymphocytes [9] was 0.53 ± 0.02 ×10^9/L. The “B-Lymphocytes % Normal Value” [9] was “(115%)”, the IgA [9] was 138 ± 6.8 and the “IgA % Normal Value” [9] was “(140%)”. For the same substance, the IgG [9] was 187 ± 1.9 mg/mL, the “IgG % Normal Value” [9] was “(140%)” and the IgM [9] was 193 ± 9.6. The “IgM % Normal Value” [9] was “(152%)”, the Leukocytes [9] was 9.0 ± 1.4 ×10^9/L and the “Leukocytes % Normal Value” [9] was “(155%)”. The Lymphocytes [9] was 2.5 ± 0.09 ×10^9/L, the “Lymphocytes % Normal Value” [9] was “(144%)” and the T-Lymphocytes [9] was 0.94 ± 0.07 ×10^9/L. The “T-Lymphocytes % Normal Value” [9] was “(106%)”, the “Complications: Cardio-Pulm.” value ([5]; Esophagus, 22 patients) was 1 and the “Complications: Mortality” value ([5]; Esophagus, 22 patients) was 0. For the same substance, the “Complications: Septic” value ([5]; Esophagus, 22 patients) was 1, the “Complications: Total” value ([5]; Esophagus, 22 patients) was 2 and the “Complications: Cardio-Pulm.” value ([5]; Lung, 16 patients) was 0. The “Complications: Mortality” value ([5]; Lung, 16 patients) was 0, the “Complications: Septic” value ([5]; Lung, 16 patients) was 0 and the “Complications: Total” value ([5]; Lung, 16 patients) was 1. The Clinical outcome ([5]; human, in vivo) was “decreased the total number of complications”.
